Experimental data from patent publication US12281121B2, “N-containing heteroaryl derivative and pharmaceutical composition comprising same as active ingredient for prevention or treatment of cancer” (VORONOI Inc., priority 2019, dated 2025).

Assays:
KIT(V559D) = molecular target: T1, KIT(V559D) (Homo sapiens, UniProt P10721, V559D); experiment: ScanMAX Kinase analysis panel (DiscoverX); format: binding; conditions: read-out: adjusted percentage (% control)
T1 construct: purchased DiscoverX ScanMAX Kinase analysis panel
Protocol: (§1) The following experiment was performed in order to evaluate the inhibitory activity of the compound according to the present invention against more enzymes. Specifically, for Examples 1 and 3 selected among the Example compounds of the present invention, the enzyme (kinase) selectivity was set to be measured by commissioning DiscoverX, and an experiment was conducted using a ScanMAX™ Kinase analysis panel. In this case, the concentration of the drug treated with the enzyme was set to 1 μM in DMSO, the adjusted percentage (% control) was determined in the same manner as in the following Equation 1, and the results are shown in the following Table 3. (Example compound−Positive control)/(Negative control−Positive control)×100 [Equation 1]
(§2) In addition, the enzyme selectivity of the present invention was determined to be active against the corresponding enzyme when the adjusted percentage was <35% (that is, less than 35%).

LCK = molecular target: T2, LCK (Homo sapiens, UniProt P06239); experiment: ScanMAX Kinase analysis panel (DiscoverX); format: binding; conditions: read-out: adjusted percentage (% control)
T2 construct: purchased DiscoverX ScanMAX Kinase analysis panel
Protocol: as §1, §2

FLT3 = molecular target: T3, FLT3 (Homo sapiens, UniProt P36888); experiment: ScanMAX Kinase analysis panel (DiscoverX); format: binding; conditions: read-out: adjusted percentage (% control)
T3 construct: purchased DiscoverX ScanMAX Kinase analysis panel
Protocol: as §1, §2

[1] = molecular target: T4, TYK2(JH1domain-catalytic) (Homo sapiens, UniProt P29597); experiment: ScanMAX Kinase analysis panel (DiscoverX); format: binding; conditions: read-out: adjusted percentage (% control)
T4 construct: TYK2(JH1domain-catalytic); purchased DiscoverX ScanMAX Kinase analysis panel
Protocol: as §1, §2

[2] = molecular target: T5, ABL1(T315I)-nonphosphorylated (Homo sapiens, UniProt P00519, T315I); experiment: ScanMAX Kinase analysis panel (DiscoverX); format: binding; conditions: read-out: adjusted percentage (% control)
T5 construct: purchased DiscoverX
Protocol: as §1, §2

FGR = molecular target: T6, FGR (Homo sapiens, UniProt P09769); experiment: ScanMAX Kinase analysis panel (DiscoverX); format: binding; conditions: read-out: adjusted percentage (% control)
T6 construct: purchased DiscoverX ScanMAX Kinase analysis panel
Protocol: as §1, §2

MAP3K2 = molecular target: T7, MAP3K2 (Homo sapiens, UniProt Q9Y2U5); experiment: ScanMAX Kinase analysis panel (DiscoverX); format: binding; conditions: read-out: adjusted percentage (% control)
T7 construct: purchased DiscoverX ScanMAX Kinase analysis panel
Protocol: as §1, §2

CSNK2A1 = molecular target: T8, CSNK2A1 (Homo sapiens, UniProt P68400); experiment: ScanMAX Kinase analysis panel (DiscoverX); format: binding; conditions: read-out: adjusted percentage (% control)
T8 construct: purchased DiscoverX
Protocol: as §1, §2

[3] = molecular target: T9, JAK1(JH2domain-pseudokinase) (Homo sapiens, UniProt P23458); experiment: ScanMAX Kinase analysis panel (DiscoverX); format: binding; conditions: read-out: adjusted percentage (% control)
T9 construct: JAK1(JH2domain-pseudokinase); purchased DiscoverX ScanMAX Kinase analysis panel
Protocol: as §1, §2

DLK = molecular target: T10, DLK (Homo sapiens, UniProt Q12852); experiment: ScanMAX Kinase analysis panel (DiscoverX); format: binding; conditions: read-out: adjusted percentage (% control)
T10 construct: purchased DiscoverX
Protocol: as §1, §2

FGFR1 = molecular target: T11, FGFR1 (Homo sapiens, UniProt P11362); experiment: ScanMAX Kinase analysis panel (DiscoverX); format: binding; conditions: read-out: adjusted percentage (% control)
T11 construct: purchased DiscoverX ScanMAX Kinase analysis panel
Protocol: as §1, §2

[4] = molecular target: T12, ABL1(H396P)-nonphosphorylated (Homo sapiens, UniProt P00519, H396P); experiment: ScanMAX Kinase analysis panel (DiscoverX); format: binding; conditions: read-out: adjusted percentage (% control)
T12 construct: purchased DiscoverX
Protocol: as §1, §2

DDR1 = molecular target: T13, DDR1 (Homo sapiens, UniProt Q08345); experiment: ScanMAX Kinase analysis panel (DiscoverX); format: binding; conditions: read-out: adjusted percentage (% control)
T13 construct: purchased DiscoverX
Protocol: as §1, §2

[5] = molecular target: T14, ABL1(H396P)-phosphorylated (Homo sapiens, UniProt P00519, H396P); experiment: ScanMAX Kinase analysis panel (DiscoverX); format: binding; conditions: read-out: adjusted percentage (% control)
T14 construct: purchased DiscoverX
Protocol: as §1, §2

[6] = molecular target: T15, EGFR(L747-E749del, A750P) (Homo sapiens, UniProt P00533, A750P/DEL747-749); experiment: ScanMAX Kinase analysis panel (DiscoverX); format: binding; conditions: read-out: adjusted percentage (% control)
T15 construct: purchased DiscoverX
Protocol: as §1, §2

FLT3(D835V) = molecular target: T16, FLT3(D835V) (Homo sapiens, UniProt P36888, D835V); experiment: ScanMAX Kinase analysis panel (DiscoverX); format: binding; conditions: read-out: adjusted percentage (% control)
T16 construct: purchased DiscoverX ScanMAX Kinase analysis panel
Protocol: as §1, §2

[7] = molecular target: T17, JAK3(JH1domain-catalytic) (Homo sapiens, UniProt P52333); experiment: ScanMAX Kinase analysis panel (DiscoverX); format: binding; conditions: read-out: adjusted percentage (% control)
T17 construct: JAK3 (JH1domain-catalytic); purchased DiscoverX ScanMAX Kinase analysis panel
Protocol: as §1, §2

RET (V804M) = RET (V804M) (Homo sapiens, UniProt P07949, V804M); experiment: RET enzyme inhibitory ability, ADP-Glo kinase assay; format: biochemical; conditions: ATP 10 μM, 25° C., 1 hour
How it was run: (§3)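 Purified human RET (658-end, 0.8 ng) was reacted with 10 μM ATP and substrate 1 h at 25°C in 40 mM Tris-HCl pH 7.4, 20 mM MgCl2, 0.5 mg/mL BSA, 50 μM DTT. ADP-Glo luminescence was normalised to solvent control; IC50 (nM) from 3 datasets.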

RET (WT) = molecular target: T18, RET (WT) (Homo sapiens, UniProt P07949); experiment: as above; format: biochemical; conditions: ATP 10 μM, 25° C., 1 hour
T18 construct: human RET (658-end, SIGNALCHEM); purchased SIGNALCHEM
T18 sequence (P07949 658-1114 limits assumed): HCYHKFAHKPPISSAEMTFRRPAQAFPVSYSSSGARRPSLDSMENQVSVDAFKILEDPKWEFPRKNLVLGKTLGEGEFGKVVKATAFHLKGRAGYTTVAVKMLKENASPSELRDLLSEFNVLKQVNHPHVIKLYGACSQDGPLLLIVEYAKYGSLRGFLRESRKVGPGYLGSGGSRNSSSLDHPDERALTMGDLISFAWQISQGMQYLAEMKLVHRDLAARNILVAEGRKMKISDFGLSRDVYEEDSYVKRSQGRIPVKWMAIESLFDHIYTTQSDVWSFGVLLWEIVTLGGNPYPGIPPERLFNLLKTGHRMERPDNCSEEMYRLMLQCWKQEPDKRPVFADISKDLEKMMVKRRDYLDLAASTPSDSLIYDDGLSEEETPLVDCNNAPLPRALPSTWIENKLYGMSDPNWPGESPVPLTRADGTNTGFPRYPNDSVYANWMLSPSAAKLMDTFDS
How it was run: as §3

CCDC6-RET = molecular target: T19, CCDC6-RET (Homo sapiens, UniProt P07949); experiment: as above; format: biochemical; conditions: ATP 10 μM, 25° C., 1 hour
T19 construct: the other entry of the earlier key: CCDC6 (Q16204, Coiled-coil domain-containing protein 6)
How it was run: as §3

T9 sequence (P23458 583-855 limits assumed): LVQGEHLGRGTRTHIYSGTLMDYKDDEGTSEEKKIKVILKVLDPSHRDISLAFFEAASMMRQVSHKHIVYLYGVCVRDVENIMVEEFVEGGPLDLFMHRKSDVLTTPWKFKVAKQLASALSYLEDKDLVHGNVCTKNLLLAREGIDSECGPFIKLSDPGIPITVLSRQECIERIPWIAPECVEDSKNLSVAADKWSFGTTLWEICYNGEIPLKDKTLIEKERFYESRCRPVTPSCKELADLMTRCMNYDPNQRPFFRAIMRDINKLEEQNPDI
T13 sequence (Q08345 19-913): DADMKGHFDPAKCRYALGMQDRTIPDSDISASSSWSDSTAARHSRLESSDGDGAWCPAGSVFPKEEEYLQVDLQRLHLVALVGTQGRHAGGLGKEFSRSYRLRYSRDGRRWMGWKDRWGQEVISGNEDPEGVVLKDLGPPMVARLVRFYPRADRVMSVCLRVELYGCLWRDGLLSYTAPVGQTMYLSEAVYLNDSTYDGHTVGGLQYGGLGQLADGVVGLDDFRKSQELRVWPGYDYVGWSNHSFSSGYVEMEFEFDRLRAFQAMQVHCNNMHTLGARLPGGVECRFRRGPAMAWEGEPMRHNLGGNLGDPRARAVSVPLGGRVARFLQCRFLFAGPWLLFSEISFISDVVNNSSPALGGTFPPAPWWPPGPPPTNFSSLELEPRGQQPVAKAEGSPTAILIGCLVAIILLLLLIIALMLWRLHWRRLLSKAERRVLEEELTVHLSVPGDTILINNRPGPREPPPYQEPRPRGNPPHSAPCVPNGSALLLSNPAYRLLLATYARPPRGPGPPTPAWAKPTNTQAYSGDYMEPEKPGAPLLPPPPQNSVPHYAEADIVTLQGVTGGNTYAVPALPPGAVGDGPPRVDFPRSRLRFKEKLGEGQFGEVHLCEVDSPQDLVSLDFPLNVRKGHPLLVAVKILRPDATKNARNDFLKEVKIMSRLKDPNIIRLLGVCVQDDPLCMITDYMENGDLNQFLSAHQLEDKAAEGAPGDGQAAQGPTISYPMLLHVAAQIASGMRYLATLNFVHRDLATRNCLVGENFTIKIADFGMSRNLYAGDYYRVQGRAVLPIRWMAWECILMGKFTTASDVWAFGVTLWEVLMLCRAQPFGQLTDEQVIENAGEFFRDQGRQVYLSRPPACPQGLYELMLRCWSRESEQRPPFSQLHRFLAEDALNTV
T6 sequence (P09769 whole entry): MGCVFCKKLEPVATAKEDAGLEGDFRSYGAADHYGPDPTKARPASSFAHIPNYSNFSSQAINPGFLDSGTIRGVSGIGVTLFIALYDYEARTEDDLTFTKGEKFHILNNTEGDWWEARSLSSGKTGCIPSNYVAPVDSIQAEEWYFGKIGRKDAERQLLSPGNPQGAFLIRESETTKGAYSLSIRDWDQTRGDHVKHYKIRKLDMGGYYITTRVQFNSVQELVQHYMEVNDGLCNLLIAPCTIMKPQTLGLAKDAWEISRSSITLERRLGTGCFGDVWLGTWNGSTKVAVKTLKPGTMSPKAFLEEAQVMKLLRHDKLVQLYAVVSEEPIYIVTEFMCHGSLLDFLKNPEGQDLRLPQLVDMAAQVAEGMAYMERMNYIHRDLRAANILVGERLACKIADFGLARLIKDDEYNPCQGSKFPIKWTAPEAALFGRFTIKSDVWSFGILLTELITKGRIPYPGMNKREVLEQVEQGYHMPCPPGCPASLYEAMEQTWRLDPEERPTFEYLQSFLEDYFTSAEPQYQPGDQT
T2 sequence (P06239 whole entry): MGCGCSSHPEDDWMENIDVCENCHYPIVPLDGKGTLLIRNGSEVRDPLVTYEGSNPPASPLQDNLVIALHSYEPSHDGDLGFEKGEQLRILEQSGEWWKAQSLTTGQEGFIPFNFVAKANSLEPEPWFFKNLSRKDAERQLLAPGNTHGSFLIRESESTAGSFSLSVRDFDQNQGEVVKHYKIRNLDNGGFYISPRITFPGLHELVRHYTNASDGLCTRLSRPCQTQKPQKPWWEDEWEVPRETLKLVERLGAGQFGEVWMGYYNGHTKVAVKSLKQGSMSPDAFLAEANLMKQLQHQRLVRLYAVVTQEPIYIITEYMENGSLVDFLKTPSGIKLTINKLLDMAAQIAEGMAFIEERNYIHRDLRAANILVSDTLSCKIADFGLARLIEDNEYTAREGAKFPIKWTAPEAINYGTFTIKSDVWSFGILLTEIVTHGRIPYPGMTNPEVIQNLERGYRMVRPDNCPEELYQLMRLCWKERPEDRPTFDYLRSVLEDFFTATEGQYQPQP
T11 sequence (P11362 22-822): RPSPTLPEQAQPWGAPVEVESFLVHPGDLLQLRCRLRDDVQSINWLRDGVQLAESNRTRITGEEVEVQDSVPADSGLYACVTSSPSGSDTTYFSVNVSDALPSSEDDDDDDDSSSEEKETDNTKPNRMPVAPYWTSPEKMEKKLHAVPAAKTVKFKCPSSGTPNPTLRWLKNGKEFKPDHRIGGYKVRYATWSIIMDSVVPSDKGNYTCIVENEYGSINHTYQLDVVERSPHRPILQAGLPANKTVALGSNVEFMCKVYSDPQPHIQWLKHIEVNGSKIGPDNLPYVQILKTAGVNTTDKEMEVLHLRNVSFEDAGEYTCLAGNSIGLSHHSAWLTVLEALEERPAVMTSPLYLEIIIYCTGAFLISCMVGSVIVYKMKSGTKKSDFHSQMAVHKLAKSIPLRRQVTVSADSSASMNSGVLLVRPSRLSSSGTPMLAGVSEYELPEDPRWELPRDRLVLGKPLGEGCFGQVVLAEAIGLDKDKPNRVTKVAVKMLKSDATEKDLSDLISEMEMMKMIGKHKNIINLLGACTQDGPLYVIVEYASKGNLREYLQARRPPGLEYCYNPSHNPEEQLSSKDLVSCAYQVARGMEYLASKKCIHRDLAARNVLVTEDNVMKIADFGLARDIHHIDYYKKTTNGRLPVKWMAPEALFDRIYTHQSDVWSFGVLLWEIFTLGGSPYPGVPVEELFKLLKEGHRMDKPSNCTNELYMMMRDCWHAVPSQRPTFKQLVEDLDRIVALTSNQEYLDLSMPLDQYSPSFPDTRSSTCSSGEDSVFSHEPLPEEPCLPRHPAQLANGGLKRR
T4 sequence (P29597 897-1176 limits assumed): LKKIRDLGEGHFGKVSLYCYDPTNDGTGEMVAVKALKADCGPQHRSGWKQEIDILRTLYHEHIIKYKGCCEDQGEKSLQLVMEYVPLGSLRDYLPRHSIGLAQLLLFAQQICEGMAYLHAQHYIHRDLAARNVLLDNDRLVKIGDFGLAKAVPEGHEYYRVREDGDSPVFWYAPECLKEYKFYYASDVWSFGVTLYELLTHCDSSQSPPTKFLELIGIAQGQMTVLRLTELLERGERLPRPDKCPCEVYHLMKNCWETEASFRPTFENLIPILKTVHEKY
T19 sequence (P07949 with tags, fused parts or gaps): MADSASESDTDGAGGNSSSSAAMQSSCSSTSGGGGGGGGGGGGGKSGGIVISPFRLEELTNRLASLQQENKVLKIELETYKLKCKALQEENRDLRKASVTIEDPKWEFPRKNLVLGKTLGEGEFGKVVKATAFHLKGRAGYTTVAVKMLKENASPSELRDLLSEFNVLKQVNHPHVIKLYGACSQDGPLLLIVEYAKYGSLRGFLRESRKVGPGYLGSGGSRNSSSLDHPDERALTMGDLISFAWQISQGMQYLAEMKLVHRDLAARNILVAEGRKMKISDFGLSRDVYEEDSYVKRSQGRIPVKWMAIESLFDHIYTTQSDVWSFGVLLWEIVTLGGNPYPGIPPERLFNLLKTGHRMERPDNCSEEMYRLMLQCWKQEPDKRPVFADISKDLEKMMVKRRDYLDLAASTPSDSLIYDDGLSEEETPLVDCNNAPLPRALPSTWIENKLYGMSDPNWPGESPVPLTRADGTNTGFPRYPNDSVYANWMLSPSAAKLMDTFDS
T8 sequence (P68400 whole entry): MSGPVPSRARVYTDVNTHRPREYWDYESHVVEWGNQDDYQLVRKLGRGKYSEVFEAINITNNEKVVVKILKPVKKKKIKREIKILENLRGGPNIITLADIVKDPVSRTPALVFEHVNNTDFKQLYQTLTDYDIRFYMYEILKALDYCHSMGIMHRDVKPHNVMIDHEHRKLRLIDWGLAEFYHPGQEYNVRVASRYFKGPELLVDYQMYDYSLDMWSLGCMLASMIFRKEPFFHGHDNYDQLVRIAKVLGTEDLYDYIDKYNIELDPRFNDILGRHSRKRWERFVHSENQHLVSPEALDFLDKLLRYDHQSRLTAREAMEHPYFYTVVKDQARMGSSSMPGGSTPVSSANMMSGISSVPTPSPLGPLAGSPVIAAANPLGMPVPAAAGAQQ
Sequence of RET (V804M) (P07949 658-1114 V804M limits assumed): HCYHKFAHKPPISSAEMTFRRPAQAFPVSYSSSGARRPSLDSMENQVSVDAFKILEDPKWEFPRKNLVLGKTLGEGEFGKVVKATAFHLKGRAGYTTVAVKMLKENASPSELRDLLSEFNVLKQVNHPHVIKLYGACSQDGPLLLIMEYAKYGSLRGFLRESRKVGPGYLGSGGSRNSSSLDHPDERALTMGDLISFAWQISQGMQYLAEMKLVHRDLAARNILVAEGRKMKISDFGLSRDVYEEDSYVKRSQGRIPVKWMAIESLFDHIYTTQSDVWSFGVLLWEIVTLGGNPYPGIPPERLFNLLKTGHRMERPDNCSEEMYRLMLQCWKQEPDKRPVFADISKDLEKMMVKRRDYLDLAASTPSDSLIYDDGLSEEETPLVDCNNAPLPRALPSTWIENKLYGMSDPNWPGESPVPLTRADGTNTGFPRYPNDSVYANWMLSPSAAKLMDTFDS
T17 sequence (P52333 822-1111 limits assumed): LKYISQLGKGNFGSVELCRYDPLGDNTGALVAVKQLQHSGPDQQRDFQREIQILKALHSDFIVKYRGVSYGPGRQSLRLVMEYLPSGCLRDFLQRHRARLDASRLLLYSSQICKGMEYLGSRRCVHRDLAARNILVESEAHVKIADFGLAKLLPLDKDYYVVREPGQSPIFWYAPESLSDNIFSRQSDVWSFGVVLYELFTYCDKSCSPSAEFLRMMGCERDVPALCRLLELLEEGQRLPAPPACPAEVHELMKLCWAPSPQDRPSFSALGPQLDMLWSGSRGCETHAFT

SMILES | remaining binding at 1 µM (KIT(V559D)) [%] | remaining binding at 1 µM (LCK) [%] | remaining binding at 1 µM (FLT3) [%] | remaining binding at 1 µM [1] [%] | remaining binding at 1 µM [2] [%] | remaining binding at 1 µM (FGR) [%] | remaining binding at 1 µM (MAP3K2) [%] | remaining binding at 1 µM (CSNK2A1) [%] | remaining binding at 1 µM [3] [%] | remaining binding at 1 µM (DLK) [%] | remaining binding at 1 µM (FGFR1) [%] | remaining binding at 1 µM [4] [%] | remaining binding at 1 µM (DDR1) [%] | remaining binding at 1 µM [5] [%] | remaining binding at 1 µM [6] [%] | remaining binding at 1 µM (FLT3(D835V)) [%] | remaining binding at 1 µM [7] [%] | IC50 (RET (V804M)) [nM] | IC50 (RET (WT)) [nM] | IC50 (CCDC6-RET) [nM]
COc1ccc(CN2C3CC2CN(c2ccc(-c4nc(Nc5cc(C)[nH]n5)c5ccccc5n4)cn2)C3)cn1 [Example 3, 2-(6-(6-((6-methoxypyridin-3-yl)methyl)-3,6-diazabicyclo [3.1.1]heptan-3-yl)pyridin-3-yl)-N-(5-methyl-1H-pyrazol-3-yl)quinazolin-4-amine] | 4.2 | 1.8 | 0.55 | 5.3 | 2.9 | 8.4 | 7.4 | 1.5 | 2.9 | 19 | 4.3 | 2.5 | 12 | 21 | 17 | 0 | 1.9 | 0.7 | 7 | 0.9
COc1ccc(CN2C3CC2CN(c2ccc(-c4nc(Nc5cc(C)[nH]n5)c5occc5n4)cn2)C3)cn1 [Example 1, 2-(6-(6-((6-methoxypyridin-3-yl)methyl)-3,6-diazabicyclo[3.1.1]heptan-3-yl)pyridin-3-yl)-N-(5-methyl-1H-pyrazol-3-yl)furo[3,2-d]pyrimidin-4-amine] | 34 | 2.5 | 1.2 | 0.2 | 20 | 12 | 27 | 2.4 | 21 | 29 | 11 | 10 | 25 | 28 | 16 | 1.3 | 0.55 | 2.2 | 18 | 1.8
